Source: ChEMBL document CHEMBL4251690, “Histone Deacetylase Inhibitors as Treatment for Targeting Multiple Components in Cancer Therapy” (ACS Med Chem Lett, 2018)

How the values were obtained:
Format in all cases: cell-based
Histone deacetylase [1] = assay: Inhibition of HDAC in human HeLa cells using Boc-K(Ac)-AMC as substrate by fluorescence assay
Histone deacetylase [2] = assay: Inhibition of HDAC in human A549 cells using Boc-K(Ac)-AMC as substrate by fluorescence assay
Histone deacetylase [3] = assay: Inhibition of HDAC in human K562 cells using Boc-K(Ac)-AMC as substrate by fluorescence assay
[4] = molecular target: T1, Histone-lysine N-methyltransferase EHMT2 (Homo sapiens, UniProt Q96KQ7); assay: Inhibition of G9a in human MDA-MB-231 cells assessed as reduction in H3K9me2 level after 2 days by immunofluorescence in-cell western analysis
T1 sequence (Q96KQ7 whole entry): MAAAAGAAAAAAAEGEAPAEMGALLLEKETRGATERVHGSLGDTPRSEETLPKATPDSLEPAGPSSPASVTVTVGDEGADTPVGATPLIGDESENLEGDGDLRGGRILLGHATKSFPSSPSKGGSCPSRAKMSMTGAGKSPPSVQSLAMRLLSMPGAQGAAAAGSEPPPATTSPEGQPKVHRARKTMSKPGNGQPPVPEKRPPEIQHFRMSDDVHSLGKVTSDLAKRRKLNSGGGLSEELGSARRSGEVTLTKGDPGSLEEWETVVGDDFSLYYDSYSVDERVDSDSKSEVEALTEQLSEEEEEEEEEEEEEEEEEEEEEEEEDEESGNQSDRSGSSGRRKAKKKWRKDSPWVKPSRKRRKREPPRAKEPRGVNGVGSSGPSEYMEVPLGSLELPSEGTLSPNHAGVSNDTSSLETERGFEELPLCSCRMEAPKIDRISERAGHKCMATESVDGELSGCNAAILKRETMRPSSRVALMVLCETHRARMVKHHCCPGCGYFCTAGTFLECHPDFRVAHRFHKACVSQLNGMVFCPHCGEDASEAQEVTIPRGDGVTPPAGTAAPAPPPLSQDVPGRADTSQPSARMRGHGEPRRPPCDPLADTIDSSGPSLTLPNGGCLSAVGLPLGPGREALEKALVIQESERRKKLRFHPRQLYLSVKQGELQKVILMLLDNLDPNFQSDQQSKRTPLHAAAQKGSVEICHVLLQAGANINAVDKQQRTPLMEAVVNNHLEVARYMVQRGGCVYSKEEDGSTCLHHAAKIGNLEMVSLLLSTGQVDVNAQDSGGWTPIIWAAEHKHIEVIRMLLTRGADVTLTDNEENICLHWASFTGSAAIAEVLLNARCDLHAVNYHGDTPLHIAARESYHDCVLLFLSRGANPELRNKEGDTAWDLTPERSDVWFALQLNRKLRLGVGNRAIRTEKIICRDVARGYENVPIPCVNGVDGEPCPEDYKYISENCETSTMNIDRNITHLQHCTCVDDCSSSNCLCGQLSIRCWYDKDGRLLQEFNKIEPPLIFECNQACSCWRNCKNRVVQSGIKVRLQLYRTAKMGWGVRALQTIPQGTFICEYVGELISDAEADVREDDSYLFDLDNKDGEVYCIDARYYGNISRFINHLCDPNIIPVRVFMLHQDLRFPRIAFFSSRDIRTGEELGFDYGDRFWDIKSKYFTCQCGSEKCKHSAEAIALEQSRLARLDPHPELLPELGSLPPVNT

Row | IC50 (Histone deacetylase [1]) [µM] | IC50 (Histone deacetylase [2]) [µM] | IC50 (Histone deacetylase [3]) [µM] | IC50 [4] [µM] | SMILES
1 | 15.33 | > 100 | 27.75 |  | COc1ccc2c(NC3CCN(Cc4ccccc4)CC3)nc(NCCNC(=O)CCCCCCC(=O)NO)nc2c1
2 | > 100 | > 100 | > 100 |  | COc1ccc2c(NCCNC(=O)CCCCCCC(=O)NO)nc(N3CCCN(C)CC3)nc2c1
3 | 13.8 | > 100 | 5.735 |  | COc1ccc2c(NC3CCN(Cc4ccccc4)CC3)nc(NCCNC(=O)CCCCCC(=O)NO)nc2c1
4 |  |  |  | 47 | CNC(=O)CCCCC(=O)NCCNc1nc(NC2CCN(C)CC2)c2ccc(OC)cc2n1
